Values of other authors, collected in patent publication US20250231185A1, “Coronavirus T Cell Epitopes, Megapools and Uses Thereof” (La Jolla Institute for Immunology, priority 2021, published 2025).

System: CD8+ T cells
Conditions: CD8R (D) megapool epitopes; dominant = recognized by 3 or more donors/different studies; cited from earlier work
In the case of 1677 (AVILRGHLR) [compound 1677], the Dominant is given as “Yes (more dominant epitopes are defined by being recognized by 3 or more donors/different studies)”. In the case of 1784 (SAFAMMFVK) [compound 1784], the Dominant is given as “Yes (more dominant epitopes are defined by being recognized by 3 or more donors/different studies)”. For 1686 (RIRGGDGKMK) [compound 1686], the Dominant is listed as “Yes (more dominant epitopes are defined by being recognized by 3 or more donors/different studies)”. In the case of 1679 (ATSRTLSYYK) [compound 1679], the Dominant is listed as “Yes (more dominant epitopes are defined by being recognized by 3 or more donors/different studies)”. In the case of 1772 (STFNVPMEK) [compound 1772], the Dominant is listed as “Yes (more dominant epitopes are defined by being recognized by 3 or more donors/different studies)”. For 1738 (VYIGDPAQL) [compound 1738], the Dominant is given as “Yes (more dominant epitopes are defined by being recognized by 3 or more donors/different studies)”. In the case of 1761 (FGDDTVIEV) [compound 1761], the Dominant is given as “Yes (more dominant epitopes are defined by being recognized by 3 or more donors/different studies)”.

Same assay, conditions: CD8RE megapool peptides (non-spike SARS-CoV-2 antigens); dominant epitope Yes/No; cited from earlier work
For 2948 (DLKGKYVQI) [compound 2948], the Dominant is given as “Yes (more dominant epitopes are defined by being recognized by 3 or more donors/different studies)”. In the case of 3047 (RARSVSPKL) [compound 3047], the Dominant is listed as “Yes (more dominant epitopes are defined by being recognized by 3 or more donors/different studies)”. In the case of 2965 (LVLSVNPYV) [compound 2965], the Dominant is given as “Yes (more dominant epitopes are defined by being recognized by 3 or more donors/different studies)”. For 3032 (CTDDNALAYY) [compound 3032], the Dominant is listed as “Yes (more dominant epitopes are defined by being recognized by 3 or more donors/different studies)”. For 2964 (VLQAVGACV) [compound 2964], the Dominant is listed as “Yes (more dominant epitopes are defined by being recognized by 3 or more donors/different studies)”. For 3011 (FLLNKEMYL) [compound 3011], the Dominant is listed as “Yes (more dominant epitopes are defined by being recognized by 3 or more donors/different studies)”. In the case of 2986 (KVDGVDVEL) [compound 2986], the Dominant is given as “Yes (more dominant epitopes are defined by being recognized by 3 or more donors/different studies)”.

Same assay, conditions: SARS-CoV-2-derived CD8 epitopes; dominant = recognized by 3 or more donors/different studies; cited from earlier work
In the case of 557 (FSKQLQQSM) [compound 557], the Dominant is listed as “Yes (more dominant epitopes are defined by being recognized by 3 or more donors/different studies)”. In the case of 504 (GTGPEAGLPY) [compound 504], the Dominant is given as “Yes (more dominant epitopes are defined by being recognized by 3 or more donors/different studies)”. In the case of 523 (KPRQKRTAT) [compound 523], the Dominant is given as “Yes (more dominant epitopes are defined by being recognized by 3 or more donors/different studies)”.

Same assay, conditions: SARS-CoV-2 Ag S; T cell type recognizing the epitope; cited from earlier work
For 1325 (LVKNKCVNF) [compound 1325], the Restriction is listed as “CD8”. For 1412 (ITGRLQSLQTY) [compound 1412], the Restriction is given as “CD8”.

Same assay, conditions: T cell subset (CD4 or CD8) recognizing the SARS-CoV-2-derived epitope; cited from earlier work
In the case of 534 (QFAPSASAFF) [compound 534], the Restriction is listed as “CD8”. In the case of 651 (RTIKVFTTV) [compound 651], the Restriction is listed as “CD8”. In the case of 599 (VEVQPQLEM) [compound 599], the Restriction is given as “CD8”. In the case of 557 (FSKQLQQSM) [compound 557], the Restriction is given as “CD8”. For 504 (GTGPEAGLPY) [compound 504], the Restriction is listed as “CD8”. For 500 (MKDLSPRWY) [compound 500], the Restriction is given as “CD8”. In the case of 550 (YKTFPPTEPK) [compound 550], the Restriction is listed as “CD8”. For 593 (YLFDESGEF) [compound 593], the Restriction is listed as “CD8”. For 577 (YEKLKPVL) [compound 577], the Restriction is given as “CD8”. For 523 (KPRQKRTAT) [compound 523], the Restriction is listed as “CD8”. In the case of 692 (YYKKDNSYF) [compound 692], the Restriction is listed as “CD8”. For 524 (RTATKAYNV) [compound 524], the Restriction is listed as “CD8”. For 656 (KPHNSHEGKTF) [compound 656], the Restriction is listed as “CD8”. For 605 (NSFSGYLKL) [compound 605], the Restriction is given as “CD8”.

Same assay, conditions: T cell type (CD4 or CD8) recognizing the SARS-CoV-2 epitope; cited from earlier work
For 969 (ARLYYDSMSY) [compound 969], the Restriction is listed as “CD8”. For 937 (DAMRNAGIV) [compound 937], the Restriction is listed as “CD8”. For 987 (MASLVLARK) [compound 987], the Restriction is listed as “CD8”. For 936 (VRQALLKTV) [compound 936], the Restriction is listed as “CD8”. In the case of 927 (NLIDSYFVV) [compound 927], the Restriction is listed as “CD8”.
